Assay results published in PubChem BioAssay AID652102 (NMMLSC, 2013).

Target: Botulinum neurotoxin type A (Clostridium botulinum (strain Hall / ATCC 3502 / NCTC 13319 / Type A)) (UniProt P0DPI1)
Assay: BoNT/A light chain protease inhibitors, confirmation, biochemical, FRET, full-length substrates, powder set 1 (AID 652102)
Conditions: BoNT/A LC protease, FRET full-length substrate cleavage

Botulinum neurotoxin type A (Clostridium botulinum (strain Hall / ATCC 3502 / NCTC 13319 / Type A)), sequence (P0DPI1 whole entry, looked up): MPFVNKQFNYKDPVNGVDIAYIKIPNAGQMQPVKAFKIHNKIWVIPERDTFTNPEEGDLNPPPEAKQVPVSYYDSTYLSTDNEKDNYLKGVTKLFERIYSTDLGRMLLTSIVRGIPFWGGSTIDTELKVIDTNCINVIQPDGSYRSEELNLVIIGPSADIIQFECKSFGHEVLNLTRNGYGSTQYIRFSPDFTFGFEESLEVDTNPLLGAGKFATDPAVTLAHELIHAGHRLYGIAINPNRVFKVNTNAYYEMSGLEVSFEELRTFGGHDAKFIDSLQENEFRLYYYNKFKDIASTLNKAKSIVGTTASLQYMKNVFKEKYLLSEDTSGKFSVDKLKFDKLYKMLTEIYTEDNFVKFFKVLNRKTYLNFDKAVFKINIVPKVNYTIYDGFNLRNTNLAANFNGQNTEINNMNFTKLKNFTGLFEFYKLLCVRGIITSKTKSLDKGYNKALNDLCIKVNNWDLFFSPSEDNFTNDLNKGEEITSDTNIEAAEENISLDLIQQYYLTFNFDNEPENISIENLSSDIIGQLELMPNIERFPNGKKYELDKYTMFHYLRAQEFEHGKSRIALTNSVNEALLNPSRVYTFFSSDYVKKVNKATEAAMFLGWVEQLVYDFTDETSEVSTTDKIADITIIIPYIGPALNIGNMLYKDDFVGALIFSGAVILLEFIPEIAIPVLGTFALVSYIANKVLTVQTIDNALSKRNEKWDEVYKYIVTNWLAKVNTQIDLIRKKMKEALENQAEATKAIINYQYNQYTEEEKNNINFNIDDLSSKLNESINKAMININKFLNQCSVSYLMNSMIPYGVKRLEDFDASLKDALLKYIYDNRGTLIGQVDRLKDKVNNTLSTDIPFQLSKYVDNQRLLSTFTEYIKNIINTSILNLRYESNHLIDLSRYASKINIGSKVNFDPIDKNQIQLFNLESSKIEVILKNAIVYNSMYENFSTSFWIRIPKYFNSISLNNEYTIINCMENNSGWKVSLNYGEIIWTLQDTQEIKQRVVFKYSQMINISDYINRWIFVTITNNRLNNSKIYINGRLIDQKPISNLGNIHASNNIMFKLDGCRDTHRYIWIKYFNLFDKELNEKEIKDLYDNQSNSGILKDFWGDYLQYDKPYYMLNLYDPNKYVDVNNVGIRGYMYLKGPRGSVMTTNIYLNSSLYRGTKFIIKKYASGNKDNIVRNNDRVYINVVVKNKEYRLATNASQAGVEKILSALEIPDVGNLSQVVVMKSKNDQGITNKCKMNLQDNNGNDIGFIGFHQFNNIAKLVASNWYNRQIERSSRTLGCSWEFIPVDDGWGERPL

In the case of `c1ccc(-c2cn3nc(-c4ccccc4)c(-c4ccccc4)nc3n2)cc1`, the IC50 is reported as 600 nM.
